Here are results for two compounds from US7910622B2, “Modulation of bacterial quorum sensing with synthetic ligands” (Wisconsin Alumni Research Foundation, priority 2007, dated 2011).

Where two headings read alike, the source gives them in different places.

The IC50 is the concentration that inhibits the measured activity by half.

Test [1] deals with wild-type V. fischeri ES114. The experiment in a line: Luminescence dose response in wild-type V. fischeri ES114. To be noted: relative to OHHL. Type of test: cell-based, Vibrio fischeri. Here is the method:
Vibrio fischeri assay procedures. For primary agonism assays, an appropriate amount of concentrated control or PHL (11) stock solution, to give a final concentration of 200 μM, was added to wells in a 96-well multititer plate. An overnight culture of V. fischeri ES114 (WT, Δ-luxI or Δ-luxR) was diluted 1:10 with LBS medium. A-200 μL portion of the diluted culture was added to each well of the plate. Plates were grown at RT with shaking (200 rpm) until the OD600=0.35-0.4 (4-6 h). Luminescence then was measured and normalized to cell density per well. […] Similar methods were used for dose response assays, except the concentrations of controls and PHLs 11 used were between 0.02 and 2×10^5 nM. All assays were performed in triplicate. IC50 and EC50 values were calculated using GraphPad Prism software using a sigmoidal curve fit.

Another test concerns the target T1, QscR (Pseudomonas aeruginosa, UniProt G3XD77).
T1 construct: expressed in transfected cells; host or cells: recombinant E. coli (pJN105Q) with β-gal promoter fusion
The test can be described thus: QscR competitive antagonism reporter gene assay (β-gal) against DDHL in recombinant E. coli (pJN105Q). It counts as cell-based. For orientation: In a reporter assay the amount or activity of a reporter protein is the signal.

For test [2], the target named is QscR:DNA binding (PA1897 promoter) (Pseudomonas aeruginosa, UniProt G3XD77). The text has this: We sought to obtain further insights into the mechanism of QscR modulation by non-native AHLs. […] We therefore performed electromobility shift assays (EMSA) on purified QscR and radiolabeled PA1897 promoter in the presence of selected QscR antagonists and 1.
Chain of QscR:DNA binding (PA1897 promoter) (G3XD77 entry or part of it): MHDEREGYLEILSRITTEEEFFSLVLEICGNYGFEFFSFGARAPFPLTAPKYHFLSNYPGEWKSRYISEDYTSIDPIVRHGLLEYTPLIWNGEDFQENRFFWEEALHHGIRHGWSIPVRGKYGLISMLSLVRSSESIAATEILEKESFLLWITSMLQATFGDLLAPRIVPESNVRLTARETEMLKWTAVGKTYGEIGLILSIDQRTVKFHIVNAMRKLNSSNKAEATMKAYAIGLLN

T1 sequence (G3XD77 entry or part of it): as above

Turning to 3-nitro PHL [B17], in test [1], the “activity in wild-type V. fischeri” value is “super-agonistic activity”.
In the case of `O=C(Cc1ccc(-c2ccccc2)cc1)N[C@H]1CCOC1=O` [C18, 4-phenyl PHL], at QscR, the concentration for half-maximal inhibition (IC50) came out at 30 nM. In addition, the entries for the “inhibition of OdDHL-dependent QscR:DNA binding” value in test [2] (100:1 ratio with OdDHL) and in test [2] (EMSA) were 85% and “capable of inhibiting OdDHL (1)-dependent QscR:DNA binding”, respectively. Also, the “reduction of QscR:DNA binding” value in test [2] (1000:1 ratio vs. OdDHL) came to 100%.
